The values below come from the supplement of paper PMC10307832.

Assay in all cases: relative viability (nuclei count vs DMSO), 5 days (fraction); higher = more cells survive
Compound in assay [1]: C#Cc1cccc(Nc2ncnc3cc(OC)c(OCCCCCCC(=O)NO)cc23)c1 [CUDC-101] + Cc1nc(Nc2ncc(C(=O)Nc3c(C)cccc3Cl)s2)cc(N2CCN(CCO)CC2)n1 [Dasatinib] (partner 0.075 µM)
In a few lines: (§1)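 One day after seeding in 1536-well plates, lung cancer cell lines were dosed by pin tool. Dosing was either single-drug or a fixed anchor-drug dose plus five library-drug doses (not always all listed) in √10 steps. After 5 days, nuclei were stained in one fix-and-stain step and counted on 4× images, and relative viability is the nuclei count of treated wells over that of vehicle wells, given as the median of duplicate plates.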

Compound in assay [2]: COc1cc2/c(=N/c3ccc(Br)cc3F)nc[nH]c2cc1OCC1CCN(C)CC1 [Vandetanib] + CC(=O)c1c(C)c2cnc(Nc3ccc(N4CCNCC4)cn3)nc2n(C2CCCC2)c1=O [Palbociclib] (partner 0.5 µM)
Put shortly: as §1

Compound in assay [3]: COc1cc2/c(=N/c3ccc(Br)cc3F)nc[nH]c2cc1OCC1CCN(C)CC1 [Vandetanib] + C[C@@H](Oc1cc(-c2cnn(C3CCNCC3)c2)cnc1N)c1c(Cl)ccc(F)c1Cl [Crizotinib] (partner 1 µM)
In a few lines: as §1

Compound in assay [4]: COc1cc2/c(=N/c3ccc(Br)cc3F)nc[nH]c2cc1OCC1CCN(C)CC1 [Vandetanib] + N=C(N)NC(=N)NCCc1ccccc1 [Phenformin] (partner 250 µM)
In a few lines:
as §1

NCI-H650: the relative viability in assay [1] (first compound 0.01 µM) worked out at 0.486; in assay [1] (first compound 0.03162 µM), 0.482; in assay [1] (first compound 0.1 µM), 0.495; in assay [1] (first compound 0.3162 µM), 0.436; in assay [1] (first compound 1 µM), 0.337; in assay [2] (first compound 0.02 µM) it was 0.358. Besides, the relative viability was found to be 0.317 in assay [2] (first compound 0.06325 µM); 0.366 in assay [2] (first compound 0.2 µM); 0.323 in assay [2] (first compound 0.6325 µM); 0.291 in assay [2] (first compound 2 µM); 0.709 in assay [3] (first compound 0.02 µM); 0.703 in assay [3] (first compound 0.06325 µM). In addition, the relative viability in assay [3] (first compound 0.2 µM) worked out at 0.758; in assay [3] (first compound 0.6325 µM), 0.605; in assay [3] (first compound 2 µM) it was 0.724; in assay [4] (first compound 0.02 µM), 0.464; in assay [4] (first compound 0.06325 µM) it was 0.448; in assay [4] (first compound 0.6325 µM) it was 0.472. Besides, the relative viability in assay [4] (first compound 2 µM) turned out to be 0.364.
As for NCI-H661, the relative viability in assay [1] (first compound 0.01 µM) is 0.926; in assay [1] (first compound 0.03162 µM), 0.926; in assay [1] (first compound 0.1 µM), 0.862; in assay [1] (first compound 0.3162 µM), 0.815; in assay [1] (first compound 1 µM), 0.386; in assay [2] (first compound 0.02 µM), 0.4. Besides, the relative viability in assay [2] (first compound 0.06325 µM) was 0.411; in assay [2] (first compound 0.2 µM) it was 0.433; in assay [2] (first compound 0.6325 µM), 0.458; in assay [2] (first compound 2 µM), 0.392; in assay [3] (first compound 0.02 µM), 0.969; in assay [3] (first compound 0.2 µM) it was 0.99. Further, the relative viability was found to be 1.06 in assay [3] (first compound 0.6325 µM); 1.03 in assay [3] (first compound 2 µM); 0.265 in assay [4] (first compound 0.02 µM); 0.284 in assay [4] (first compound 0.06325 µM); 0.269 in assay [4] (first compound 0.2 µM); 0.279 in assay [4] (first compound 0.6325 µM). Also, the relative viability in assay [4] (first compound 2 µM) worked out at 0.271.
With NCI-H727, the relative viability was found to be 0.298 in assay [1] (first compound 0.01 µM); 0.422 in assay [1] (first compound 0.03162 µM); 0.359 in assay [1] (first compound 0.1 µM); 0.375 in assay [1] (first compound 0.3162 µM); 0.311 in assay [1] (first compound 1 µM); 0.622 in assay [2] (first compound 0.02 µM). Moreover, the relative viability in assay [2] (first compound 0.06325 µM) came to 0.692; in assay [2] (first compound 0.2 µM) it was 0.679; in assay [2] (first compound 0.6325 µM), 0.578; in assay [2] (first compound 2 µM) it was 0.56; in assay [3] (first compound 0.02 µM) it was 0.821; in assay [3] (first compound 0.06325 µM), 0.885. The relative viability is 0.786 in assay [3] (first compound 0.2 µM); 0.65 in assay [3] (first compound 0.6325 µM); 0.687 in assay [3] (first compound 2 µM); 0.565 in assay [4] (first compound 0.02 µM); 0.468 in assay [4] (first compound 0.06325 µM); 0.712 in assay [4] (first compound 0.2 µM). The relative viability was found to be 0.283 in assay [4] (first compound 0.6325 µM) and 0.448 in assay [4] (first compound 2 µM).
Take NCI-H838: the relative viability in assay [1] (first compound 0.01 µM) was 0.338; in assay [1] (first compound 0.1 µM) it was 0.308; in assay [1] (first compound 0.3162 µM), 0.335; in assay [1] (first compound 1 µM) it was 0.358; in assay [2] (first compound 0.02 µM) it was 0.219; in assay [2] (first compound 0.06325 µM) it was 0.227. The relative viability came out at 0.243 in assay [2] (first compound 0.2 µM); 0.216 in assay [2] (first compound 0.6325 µM); 0.219 in assay [2] (first compound 2 µM); 0.819 in assay [3] (first compound 0.02 µM); 0.846 in assay [3] (first compound 0.06325 µM); 0.898 in assay [3] (first compound 0.2 µM). In addition, the relative viability in assay [3] (first compound 0.6325 µM) amounted to 0.819; in assay [3] (first compound 2 µM) it was 0.724; in assay [4] (first compound 0.02 µM), 0.533; in assay [4] (first compound 0.06325 µM), 0.579; in assay [4] (first compound 0.2 µM), 0.617; in assay [4] (first compound 0.6325 µM) it was 0.542. Moreover, the relative viability in assay [4] (first compound 2 µM) was 0.646.
